Experimental data taken from ChEMBL document CHEMBL1132434, “Antitumor benzothiazoles. 8. Synthesis, metabolic formation, and biological properties of the C- and N-oxidation products of antitumor 2-(4-aminophenyl)benzothiazoles” (J Med Chem, 1999).
pIC50: −log10 of the molar value.

Test system: MCF7
Assay: In vitro cytotoxicity against MCF-7 human mammary carcinoma cells
Assay type: functional, cell-based

| Compound | pIC50 |
| --- | --- |
| CC(=O)ON(C(C)=O)c1ccc(-c2nc3ccccc3s2)cc1 | > 9.00 |
| Nc1ccc(-c2nc3ccccc3s2)cc1I | > 9.00 |
| CC(=O)Nc1ccc(-c2nc3c(O)cccc3s2)cc1Cl | 4.25 |
| CC(=O)Nc1ccc(-c2nc3c(O)cccc3s2)cc1C | 4.48 |
| Cc1cc(-c2nc3c(O)cccc3s2)ccc1N | < 4.00 |
| Cc1cc(-c2nc3cc(O)ccc3s2)ccc1N | 4.10 |
| CC(=O)Nc1ccc(-c2nc3cccc(O)c3s2)cc1C | 4.32 |
| Cc1cc(-c2nc3cccc(O)c3s2)ccc1N | 4.04 |
| CC(=O)Nc1ccc(-c2nc3ccccc3s2)cc1O | 5.05 |
| Nc1ccc(-c2nc3c(O)cccc3s2)cc1Cl | 4.21 |
| CC(=O)Nc1ccc(-c2nc3cc(O)ccc3s2)cc1Cl | 4.51 |
| Nc1ccc(-c2nc3ccccc3s2)cc1 | > 9.00 |
| Nc1ccc(-c2nc3ccc(O)cc3s2)cc1 | 4.67 |
